This is an account of results in the supplement of paper PMC8967900.

Each structure is given as a SMILES string.
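Note: ALL cell lines in 384-well plates, five doses spanning 10,000-fold, each plate scaled between vehicle and 100 µmol/L benzalkonium chloride controls, sDSS an adapted area-under-curve metric.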

The test system of the first experiment is NALM-6. The experiment is described as follows: selective drug sensitivity score (sDSS, relative to normal bone marrow) (sDSS (score)); higher = more potent and effective on the cell line relative to normal bone marrow cells. The following applies: 72 h.
For `CCCCCOC(=O)Nc1nc(=O)n([C@@H]2O[C@H](C)[C@@H](O)[C@H]2O)cc1F` [Capecitabine] (top concentration 10000 nM), the “selective drug sensitivity score” value was -0.06.

`Nc1nc(Cl)nc2c1ncn2[C@H]1C[C@H](O)[C@@H](CO)O1` [Cladribine] (top concentration 1000 nM): the “selective drug sensitivity score” value came to 0.46.

For `CCN(CC)CCOc1ccc(/C(=C(/Cl)c2ccccc2)c2ccccc2)cc1` [Clomifene] (top concentration 10000 nM), the “selective drug sensitivity score” value is -0.28.

For `CO[C@@H](C(=O)N1Cc2[nH]nc(NC(=O)c3ccc(N4CCN(C)CC4)cc3)c2C1)c1ccccc1` [Danusertib] (top concentration 10000 nM), the “selective drug sensitivity score” value came out at 12.5.

Consider `CC[C@@](C)(Nc1ccnc(-c2c[nH]c3ncccc23)n1)C(=O)NCC(F)(F)F` [Decernotinib] (top concentration 10000 nM), for which the “selective drug sensitivity score” value is -3.94.

Turning to `CN1CCN(c2ccc3nc(-c4c(N)c5c(F)cccc5[nH]c4=O)[nH]c3c2)CC1` [Dovitinib] (top concentration 10000 nM), the “selective drug sensitivity score” value was -0.14.

As for `CC(C)(O)CNc1nc(Nc2ccnc(C(F)(F)F)c2)nc(-c2cccc(C(F)(F)F)n2)n1` [Enasidenib] (top concentration 10000 nM), the “selective drug sensitivity score” value is -0.8.

`CN1CCN(c2ccc(C(=O)Nc3n[nH]c4ccc(Cc5cc(F)cc(F)c5)cc34)c(NC3CCOCC3)c2)CC1` [Entrectinib] (top concentration 1000 nM): the “selective drug sensitivity score” value is -1.2.

On to `CNC(=O)c1ccc(N2C(=S)N(c3ccc(C#N)c(C(F)(F)F)c3)C(=O)C2(C)C)cc1F` [Enzalutamide] (top concentration 10000 nM), for which the “selective drug sensitivity score” value stood at 0.68.

Regarding `Cn1cc(C2=C(c3cn(C4CCN(Cc5ccccn5)CC4)c4ccccc34)C(=O)NC2=O)c2ccccc21` [Enzastaurin] (top concentration 10000 nM), the “selective drug sensitivity score” value is 5.26.

With `NS(=O)(=O)NCCNc1nonc1/C(=N/O)Nc1ccc(F)c(Br)c1` [Epacadostat] (top concentration 10000 nM), the “selective drug sensitivity score” value is -0.26.

On to `CCOc1ccccc1-n1c(C(C)N2CCN(C(=O)COc3ccc(Cl)cc3)CC2)nc2ccccc2c1=O` (stereo not given) [Erastin] (top concentration 10000 nM), for which the “selective drug sensitivity score” value worked out at 7.44.

`COc1cc(OC)cc(N(CCNC(C)C)c2ccc3ncc(-c4cnn(C)c4)nc3c2)c1` [Erdafitinib] (top concentration 1000 nM): the “selective drug sensitivity score” value was -0.56.

Turning to `CC(C)(C)NC(=O)[C@H]1CC[C@H]2[C@@H]3CC[C@H]4NC(=O)C=C[C@]4(C)[C@H]3CC[C@]12C` [Finasteride] (top concentration 10000 nM), the “selective drug sensitivity score” value is -0.52.

For the compound `O=c1[nH]c(=O)n([C@H]2C[C@H](O)[C@@H](CO)O2)cc1F` [Floxuridine] (top concentration 10000 nM), the “selective drug sensitivity score” value was 24.2.

As for `CNc1nc(Nc2cn(C(C)(C)C#N)nc2C)ncc1C(F)(F)F` [GNE-0877] (top concentration 1000 nM), the “selective drug sensitivity score” value was determined as 0.

Turning to `CCCc1cc(C)[nH]c(=O)c1CNC(=O)c1cc(-c2ccnc(N3CCN(C)CC3)c2)cc2c1cnn2C(C)C` [GSK343] (top concentration 1000 nM), the “selective drug sensitivity score” value was found to be 0.

`O=C(O)c1ccc(O)c2ncccc12` [IOX-1] (top concentration 100000 nM): the “selective drug sensitivity score” value is 3.74.

Another experiment concerns MOLT-4. Described as above. To be noted: 72 h.
Turning to `CCCCCOC(=O)Nc1nc(=O)n([C@@H]2O[C@H](C)[C@@H](O)[C@H]2O)cc1F` [Capecitabine] (top concentration 10000 nM), the “selective drug sensitivity score” value was -0.06.

Take `Nc1nc(Cl)nc2c1ncn2[C@H]1C[C@H](O)[C@@H](CO)O1` [Cladribine] (top concentration 1000 nM): the “selective drug sensitivity score” value was -7.74.

On to `CCN(CC)CCOc1ccc(/C(=C(/Cl)c2ccccc2)c2ccccc2)cc1` [Clomifene] (top concentration 10000 nM), for which the “selective drug sensitivity score” value is -1.08.

With `CO[C@@H](C(=O)N1Cc2[nH]nc(NC(=O)c3ccc(N4CCN(C)CC4)cc3)c2C1)c1ccccc1` [Danusertib] (top concentration 10000 nM), the “selective drug sensitivity score” value came to 14.5.

With `CC[C@@](C)(Nc1ccnc(-c2c[nH]c3ncccc23)n1)C(=O)NCC(F)(F)F` [Decernotinib] (top concentration 10000 nM), the “selective drug sensitivity score” value was -3.94.

In the case of `CN1CCN(c2ccc3nc(-c4c(N)c5c(F)cccc5[nH]c4=O)[nH]c3c2)CC1` [Dovitinib] (top concentration 10000 nM), the “selective drug sensitivity score” value was -0.14.

For the compound `CC(C)(O)CNc1nc(Nc2ccnc(C(F)(F)F)c2)nc(-c2cccc(C(F)(F)F)n2)n1` [Enasidenib] (top concentration 10000 nM), the “selective drug sensitivity score” value was -0.8.

For `CN1CCN(c2ccc(C(=O)Nc3n[nH]c4ccc(Cc5cc(F)cc(F)c5)cc34)c(NC3CCOCC3)c2)CC1` [Entrectinib] (top concentration 1000 nM), the “selective drug sensitivity score” value is -1.2.

With `CNC(=O)c1ccc(N2C(=S)N(c3ccc(C#N)c(C(F)(F)F)c3)C(=O)C2(C)C)cc1F` [Enzalutamide] (top concentration 10000 nM), the “selective drug sensitivity score” value is -0.82.

Take `Cn1cc(C2=C(c3cn(C4CCN(Cc5ccccn5)CC4)c4ccccc34)C(=O)NC2=O)c2ccccc21` [Enzastaurin] (top concentration 10000 nM): the “selective drug sensitivity score” value amounted to 6.26.

Regarding `NS(=O)(=O)NCCNc1nonc1/C(=N/O)Nc1ccc(F)c(Br)c1` [Epacadostat] (top concentration 10000 nM), the “selective drug sensitivity score” value is -0.16.

`CCOc1ccccc1-n1c(C(C)N2CCN(C(=O)COc3ccc(Cl)cc3)CC2)nc2ccccc2c1=O` (stereo not given) [Erastin] (top concentration 10000 nM): the “selective drug sensitivity score” value is -2.26.

For `COc1cc(OC)cc(N(CCNC(C)C)c2ccc3ncc(-c4cnn(C)c4)nc3c2)c1` [Erdafitinib] (top concentration 1000 nM), the “selective drug sensitivity score” value was -0.56.

Regarding `CC(C)(C)NC(=O)[C@H]1CC[C@H]2[C@@H]3CC[C@H]4NC(=O)C=C[C@]4(C)[C@H]3CC[C@]12C` [Finasteride] (top concentration 10000 nM), the “selective drug sensitivity score” value was -0.52.

`O=c1[nH]c(=O)n([C@H]2C[C@H](O)[C@@H](CO)O2)cc1F` [Floxuridine] (top concentration 10000 nM): the “selective drug sensitivity score” value stood at 26.6.

In the case of `CNc1nc(Nc2cn(C(C)(C)C#N)nc2C)ncc1C(F)(F)F` [GNE-0877] (top concentration 1000 nM), the “selective drug sensitivity score” value is 0.

`CCCc1cc(C)[nH]c(=O)c1CNC(=O)c1cc(-c2ccnc(N3CCN(C)CC3)c2)cc2c1cnn2C(C)C` [GSK343] (top concentration 1000 nM): the “selective drug sensitivity score” value worked out at 0.

With `O=C(O)c1ccc(O)c2ncccc12` [IOX-1] (top concentration 100000 nM), the “selective drug sensitivity score” value was found to be 3.34.

A further experiment has as its system HPB-ALL. Described as above. To be noted: 72 h.
In the case of `CCCCCOC(=O)Nc1nc(=O)n([C@@H]2O[C@H](C)[C@@H](O)[C@H]2O)cc1F` [Capecitabine] (top concentration 10000 nM), the “selective drug sensitivity score” value turned out to be 0.64.

`Nc1nc(Cl)nc2c1ncn2[C@H]1C[C@H](O)[C@@H](CO)O1` [Cladribine] (top concentration 1000 nM): the “selective drug sensitivity score” value is -9.34.

In the case of `CCN(CC)CCOc1ccc(/C(=C(/Cl)c2ccccc2)c2ccccc2)cc1` [Clomifene] (top concentration 10000 nM), the “selective drug sensitivity score” value is -0.78.

For `CO[C@@H](C(=O)N1Cc2[nH]nc(NC(=O)c3ccc(N4CCN(C)CC4)cc3)c2C1)c1ccccc1` [Danusertib] (top concentration 10000 nM), the “selective drug sensitivity score” value worked out at 5.54.

As for `CC[C@@](C)(Nc1ccnc(-c2c[nH]c3ncccc23)n1)C(=O)NCC(F)(F)F` [Decernotinib] (top concentration 10000 nM), the “selective drug sensitivity score” value is -3.94.

As for `CN1CCN(c2ccc3nc(-c4c(N)c5c(F)cccc5[nH]c4=O)[nH]c3c2)CC1` [Dovitinib] (top concentration 10000 nM), the “selective drug sensitivity score” value was -0.14.

In the case of `CC(C)(O)CNc1nc(Nc2ccnc(C(F)(F)F)c2)nc(-c2cccc(C(F)(F)F)n2)n1` [Enasidenib] (top concentration 10000 nM), the “selective drug sensitivity score” value is -0.5.

Take `CN1CCN(c2ccc(C(=O)Nc3n[nH]c4ccc(Cc5cc(F)cc(F)c5)cc34)c(NC3CCOCC3)c2)CC1` [Entrectinib] (top concentration 1000 nM): the “selective drug sensitivity score” value was -1.2.

Take `CNC(=O)c1ccc(N2C(=S)N(c3ccc(C#N)c(C(F)(F)F)c3)C(=O)C2(C)C)cc1F` [Enzalutamide] (top concentration 10000 nM): the “selective drug sensitivity score” value came out at 8.28.
